From patent US10479784B2, “Substituted pyrazin-2-amines as inhibitors of ATR kinase” (Vertex Pharmaceuticals Incorporated, priority 2008, dated 2019) come the findings set out here.

Usually Ki stands for the dissociation constant of the complex between target and ligand, obtained from inhibition or displacement.

Each structure is given as a SMILES string.

In this assay the target is full-length ATR (Homo sapiens (Human), UniProt Q13535). Briefly: ATR Inhibition Assay (radioactive-phosphate incorporation). Conditions: read-out: ATR Ki. Type of assay: biochemical. A digest of the protocol: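 Ki(app) was derived by non-linear regression of background-corrected initial rates of 33P incorporation into an 800 μM target peptide, read by phosphocellulose filter scintillation counting. Reaction conditions: 5 nM full-length ATR, 10 μM [γ-33P]ATP, pH 7.5 Tris buffer with MgCl2 and DTT, 25 °C, 10-min preincubation, 24 h run.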
Sequence of full-length ATR (Q13535 whole entry): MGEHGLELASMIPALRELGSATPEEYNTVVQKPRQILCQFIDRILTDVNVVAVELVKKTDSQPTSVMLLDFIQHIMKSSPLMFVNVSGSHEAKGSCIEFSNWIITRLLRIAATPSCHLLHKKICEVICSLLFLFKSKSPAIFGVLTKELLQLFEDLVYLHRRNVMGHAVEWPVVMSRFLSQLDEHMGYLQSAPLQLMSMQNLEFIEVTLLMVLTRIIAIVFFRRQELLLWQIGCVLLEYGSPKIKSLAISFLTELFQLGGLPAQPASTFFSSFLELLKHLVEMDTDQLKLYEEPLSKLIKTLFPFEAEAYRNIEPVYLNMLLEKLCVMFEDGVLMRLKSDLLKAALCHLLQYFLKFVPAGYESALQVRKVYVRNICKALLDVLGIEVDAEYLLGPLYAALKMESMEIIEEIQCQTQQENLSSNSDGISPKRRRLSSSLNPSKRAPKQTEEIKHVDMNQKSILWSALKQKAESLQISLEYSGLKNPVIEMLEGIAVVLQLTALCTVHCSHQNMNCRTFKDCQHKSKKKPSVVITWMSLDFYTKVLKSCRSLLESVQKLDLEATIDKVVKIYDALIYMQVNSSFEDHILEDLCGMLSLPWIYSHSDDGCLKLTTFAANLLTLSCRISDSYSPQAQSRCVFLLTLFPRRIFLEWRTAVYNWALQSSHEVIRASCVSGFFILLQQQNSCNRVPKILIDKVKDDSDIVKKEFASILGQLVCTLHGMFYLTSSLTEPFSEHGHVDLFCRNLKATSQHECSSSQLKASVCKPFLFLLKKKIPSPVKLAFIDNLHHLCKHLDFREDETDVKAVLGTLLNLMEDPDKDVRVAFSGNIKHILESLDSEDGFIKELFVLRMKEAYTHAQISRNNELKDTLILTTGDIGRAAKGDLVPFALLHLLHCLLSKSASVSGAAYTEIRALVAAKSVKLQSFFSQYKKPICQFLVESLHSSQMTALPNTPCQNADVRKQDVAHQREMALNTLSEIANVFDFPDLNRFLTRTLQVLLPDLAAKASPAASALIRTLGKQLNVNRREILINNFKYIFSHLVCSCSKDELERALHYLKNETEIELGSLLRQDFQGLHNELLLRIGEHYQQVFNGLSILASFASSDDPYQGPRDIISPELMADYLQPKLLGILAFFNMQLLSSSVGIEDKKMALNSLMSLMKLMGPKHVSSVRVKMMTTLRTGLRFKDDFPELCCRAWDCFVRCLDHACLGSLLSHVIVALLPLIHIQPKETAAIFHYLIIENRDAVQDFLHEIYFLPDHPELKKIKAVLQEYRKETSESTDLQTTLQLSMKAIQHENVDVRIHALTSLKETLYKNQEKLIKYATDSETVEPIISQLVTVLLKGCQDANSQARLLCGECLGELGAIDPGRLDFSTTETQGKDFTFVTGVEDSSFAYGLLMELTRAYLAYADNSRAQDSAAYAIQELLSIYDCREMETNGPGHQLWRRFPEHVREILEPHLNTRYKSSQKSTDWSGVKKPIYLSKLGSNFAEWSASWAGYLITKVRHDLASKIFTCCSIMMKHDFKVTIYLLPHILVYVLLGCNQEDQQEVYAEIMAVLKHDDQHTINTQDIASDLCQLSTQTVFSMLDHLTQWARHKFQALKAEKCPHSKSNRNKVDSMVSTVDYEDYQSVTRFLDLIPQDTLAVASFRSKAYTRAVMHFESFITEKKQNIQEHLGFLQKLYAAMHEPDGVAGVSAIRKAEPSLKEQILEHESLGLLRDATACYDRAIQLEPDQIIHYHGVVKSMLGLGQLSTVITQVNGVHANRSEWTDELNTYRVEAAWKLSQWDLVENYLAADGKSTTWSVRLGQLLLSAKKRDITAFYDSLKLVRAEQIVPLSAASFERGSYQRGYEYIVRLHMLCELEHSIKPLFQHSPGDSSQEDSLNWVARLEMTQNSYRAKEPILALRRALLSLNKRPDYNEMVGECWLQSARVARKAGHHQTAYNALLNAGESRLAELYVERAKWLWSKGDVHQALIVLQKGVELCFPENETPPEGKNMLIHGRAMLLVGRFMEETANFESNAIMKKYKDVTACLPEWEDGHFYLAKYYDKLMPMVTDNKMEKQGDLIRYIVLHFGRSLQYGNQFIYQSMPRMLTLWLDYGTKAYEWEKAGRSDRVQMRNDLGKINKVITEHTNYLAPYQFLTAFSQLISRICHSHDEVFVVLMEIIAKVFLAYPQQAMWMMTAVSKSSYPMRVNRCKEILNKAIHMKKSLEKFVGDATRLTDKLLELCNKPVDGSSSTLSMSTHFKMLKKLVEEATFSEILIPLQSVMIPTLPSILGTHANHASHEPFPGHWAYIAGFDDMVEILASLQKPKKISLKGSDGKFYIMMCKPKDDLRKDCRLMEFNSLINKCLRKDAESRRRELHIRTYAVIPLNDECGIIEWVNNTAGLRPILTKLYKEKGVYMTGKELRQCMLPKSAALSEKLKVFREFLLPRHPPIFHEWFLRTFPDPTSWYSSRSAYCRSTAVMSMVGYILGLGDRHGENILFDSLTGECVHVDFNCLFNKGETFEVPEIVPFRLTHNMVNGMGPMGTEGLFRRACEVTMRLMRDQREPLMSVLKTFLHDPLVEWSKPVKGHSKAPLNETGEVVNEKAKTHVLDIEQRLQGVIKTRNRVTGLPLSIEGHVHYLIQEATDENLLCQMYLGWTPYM

Consider `CC[S+]([O-])c1ccccc1-c1cnc(N)c(-c2nnc(-c3ccccc3)o2)n1` (stereo not shown) [IA-256, 5-(2-ethylsulfinylphenyl)-3-(5-phenyl-1,3,4-oxadiazol-2-yl)pyrazin-2-amine], for which the Ki was at most 10 nM.
Then `Nc1ncc(-c2cccnc2)nc1C(=O)Nc1cccc(S(N)(=O)=O)c1` [Compound I-101, 3-amino-6-(pyridin-3-yl)-N-(3-sulfamoylphenyl)pyrazine-2-carboxamide], with 10 to 100 nM; and `Cc1ccc2nc(-c3nc(-c4ccc(C(=O)N5CCN(C)CC5)cc4)cnc3N)[nH]c2c1` [Compound I-150, (4-(5-amino-6-(6-methyl-1H-benzo[d]imidazol-2-yl)pyrazin-2-yl)phenyl)(4-methylpiperazin-1-yl)methanone], with 10 to 100 nM; and `CNCc1ccc(-c2nnc(-c3nc(-c4ccc(S(=O)(=O)C(C)C)nc4)cnc3N)o2)cc1` [IA-303, 5-(6-isopropylsulfonyl-3-pyridyl)-3-[5-[4-(methylaminomethyl)phenyl]-1,3,4-oxadiazol-2-yl]pyrazin-2-amine], with at most 10 nM.
The result for `CC(C)S(=O)(=O)c1ccc(-c2cnc(N)c(-c3cc(-c4ccc(CNCCO)cc4)no3)n2)cc1` [IIA-9, 2-(4-(5-(3-amino-6-(4-(isopropylsulfonyl)phenyl)pyrazin-2-yl)isoxazol-3-yl)benzylamino)ethanol] reads at most 10 nM; that for `Nc1ncc(-c2ccc(C(=O)N3CCCNCC3)cc2)nc1-c1cc(-c2ccccc2)no1` [IIA-3], at most 10 nM.
Then `NC(=O)c1ccc(-c2cnc(N)c(-c3nnc(-c4ccccc4)o3)n2)cc1` [IA-218, 4-[5-amino-6-(5-phenyl-1,3,4-oxadiazol-2-yl)pyrazin-2-yl]benzamide], with 10 to 100 nM; and `Nc1ncc(-c2cccnc2)nc1C(=O)Nc1ccc2cc[nH]c2c1` [Compound V-16], with 10 to 100 nM; and `Nc1ncc(-c2ccccc2)nc1-c1nc2cccc(O)c2[nH]1` [Compound I-113, 2-(3-amino-6-phenylpyrazin-2-yl)-1H-benzo[d]imidazol-7-ol], with 100 to 5000 nM.
On to `CS(=O)(=O)c1ccccc1-c1cnc(N)c(-c2nnc(-c3ccccc3)o2)n1` [IA-190, 5-(2-methylsulfonylphenyl)-3-(5-phenyl-1,3,4-oxadiazol-2-yl)pyrazin-2-amine], for which the Ki lay in the range of 100 to 5000 nM.
Then `Cc1ccccc1-c1nnc(-c2nc(-c3ccc(C(=O)N(C)C)cc3)cnc2N)o1` [IA-71, 4-[5-amino-6-[5-(o-tolyl)-1,3,4-oxadiazol-2-yl]pyrazin-2-yl]-N,N-dimethyl-benzamide], with at most 10 nM; and `CN(C)C1CCN(C(=O)c2c(F)cc(-c3cnc(N)c(-c4nnc(-c5ccccc5)o4)n3)cc2F)CC1` [IA-21], with 10 to 100 nM.
Then `Nc1ncc(-c2cccnc2)nc1C(=O)Nc1ccc(F)cc1` [Compound I-94, 3-amino-N-(4-fluorophenyl)-6-(pyridin-3-yl)pyrazine-2-carboxamide], with 100 to 5000 nM.
The result for `CC(C)(C)OC(=O)N1CCCN(C(=O)c2ccc(-c3cnc(N)c(-c4nnc(-c5ccccc5)o4)n3)cc2)CC1` [IA-28] reads at most 10 nM; that for `CS(=O)(=O)c1ccc(-c2cnc(N)c(C(=O)Nc3n[nH]c4ccccc34)n2)cc1` [Compound V-18], 100 to 5000 nM; that for `Nc1ncc(-c2cccnc2)nc1C(=O)Nc1cccc2cc[nH]c12` [Compound V-15], 100 to 5000 nM.
For the compound `Cc1cccc(-c2cnc(N)c(-c3nnc(-c4ccccc4)o3)n2)c1` [IA-182, 5-(m-tolyl)-3-(5-phenyl-1,3,4-oxadiazol-2-yl)pyrazin-2-amine], the Ki was 100 to 5000 nM.
The result for `CNCc1ccc(-c2nnc(-c3nc(-c4ccc(S(=O)(=O)C(C)C)c(Cl)c4)cnc3N)o2)c(F)c1` [IA-329, 5-(3-chloro-4-isopropylsulfonyl-phenyl)-3-[5-[2-fluoro-4-(methylaminomethyl)phenyl]-1,3,4-oxadiazol-2-yl]pyrazin-2-amine] reads at most 10 nM; that for `Nc1ncc(-c2ccncc2)nc1C(=O)Nc1ccccc1` [Compound I-33, 3-amino-N-phenyl-6-(pyridin-4-yl)pyrazine-2-carboxamide], 100 to 5000 nM.
Then `CN(C)C(=O)c1ccc(-c2cnc(N)c(-c3nnc(-c4ccncc4)o3)n2)cc1` [IA-67], with 10 to 100 nM; and `Cc1csc(-c2nnc(-c3nc(-c4ccc(C(=O)N(C)C)cc4)cnc3N)o2)c1` [IA-246, 4-[5-amino-6-[5-(4-methyl-2-thienyl)-1,3,4-oxadiazol-2-yl]pyrazin-2-yl]-N,N-dimethyl-benzamide], with at most 10 nM; and `Cc1cnc(NC(=O)c2nc(-c3ccc(S(C)(=O)=O)cc3)cnc2N)s1` [VII-8], with 10 to 100 nM.
The result for `CS(=O)(=O)Nc1cccc(-c2cnc(N)c(-c3nnc(-c4ccccc4)o3)n2)c1` [IA-144, N-[3-[5-amino-6-(5-phenyl-1,3,4-oxadiazol-2-yl)pyrazin-2-yl]phenyl]methanesulfonamide] reads 10 to 100 nM; that for `Nc1ncc(-c2ccc(O)nc2)nc1-c1nc2ccccc2[nH]1` [Compound I-137, 5-(5-amino-6-(1H-benzo[d]imidazol-2-yl)pyrazin-2-yl)pyridin-2-ol], 10 to 100 nM.
Consider `CN(C)C(=O)c1ccc(-c2cnc(N)c(-c3nnc(NC4CCCCC4)o3)n2)cc1` [IA-163, 4-[5-amino-6-[5-(cyclohexylamino)-1,3,4-oxadiazol-2-yl]pyrazin-2-yl]-N,N-dimethyl-benzamide], for which the Ki lay in the range of 100 to 5000 nM.
Then `CC(C)(C)CC(=O)N1CCCN(C(=O)c2ccc(-c3cnc(N)c(-c4nnc(-c5ccccc5)o4)n3)cc2)CC1` [IA-31], with at most 10 nM; and `Cc1cc(NC(=O)c2nc(-c3ccc(S(C)(=O)=O)cc3)cnc2N)ccn1` [VII-2], with 10 to 100 nM.
Then `CCc1ccccc1-c1nnc(-c2nc(-c3ccc(C(=O)N(C)C)cc3)cnc2N)o1` [IA-155, 4-(5-amino-6-(5-(2-ethylphenyl)-1,3,4-oxadiazol-2-yl)pyrazin-2-yl)-N,N-dimethylbenzamide], with 10 to 100 nM; and `COc1cnccc1-c1cnc(N)c(-c2nnc(-c3ccccc3)o2)n1` [IA-86, 5-(3-methoxy-4-pyridyl)-3-(5-phenyl-1,3,4-oxadiazol-2-yl)pyrazin-2-amine], with 100 to 5000 nM; and `CNCc1ccc(-c2cc(-c3nc(-c4ccc(S(=O)(=O)C(C)C)cc4)cnc3N)on2)c(C)c1` [IIA-12, 5-(4-isopropylsulfonylphenyl)-3-[3-[2-methyl-4-(methylaminomethyl)phenyl]isoxazol-5-yl]pyrazin-2-amine], with at most 10 nM.
The result for `CC(C)S(=O)(=O)c1ccc(-c2cnc(N)c(-c3nnc(-c4ccc([C@H](C)N)cc4)o3)n2)cc1` [IA-228, 3-[5-[4-[(1S)-1-aminoethyl]phenyl]-1,3,4-oxadiazol-2-yl]-5-(4-isopropylsulfonylphenyl)pyrazin-2-amine] reads at most 10 nM.
Consider `CN(C)C(=O)c1ccc(-c2cnc(N)c(-c3nnc(-c4ccccc4F)o3)n2)cc1` [IA-30], for which the Ki is at most 10 nM.
Then `Nc1ncc(-c2cccnc2)nc1C(=O)Nc1cccc2c1OC(F)(F)O2` [Compound I-99, 3-amino-N-(2,2-difluorobenzo[d][1,3]dioxol-4-yl)-6-(pyridin-3-yl)pyrazine-2-carboxamide], with 100 to 5000 nM.
Then `CC(C)S(=O)(=O)c1ccc(-c2cnc(N)c(-c3nnc(C(=O)NC4CCNC4)o3)n2)cc1` (stereo not shown) [IA-114, 5-[3-amino-6-(4-isopropylsulfonylphenyl)pyrazin-2-yl]-N-pyrrolidin-3-yl-1,3,4-oxadiazole-2-carboxamide], with 100 to 5000 nM; and `Nc1ncc(-c2ccc(C(=O)N3CCCC3)cc2)nc1C(=O)Nc1ccccc1` [Compound I-70, 3-amino-N-phenyl-6-(4-(pyrrolidine-1-carbonyl)phenyl)pyrazine-2-carboxamide], with 10 to 100 nM; and `CNCc1cccc(NC(=O)c2nc(-c3ccc(S(C)(=O)=O)cc3)cnc2N)c1` [VII-13], with 10 to 100 nM.
In the case of `COCCNCc1ccc(-c2nnc(-c3nc(-c4ccc(S(=O)(=O)C(C)C)cc4)cnc3N)o2)cc1` [IA-119, 5-(4-isopropylsulfonylphenyl)-3-[5-[4-[(2-methoxyethylamino)methyl]phenyl]-1,3,4-oxadiazol-2-yl]pyrazin-2-amine], the Ki is at most 10 nM.
The result for `Nc1ncc(-c2cccc(N3CCOCC3)c2)nc1C(=O)Nc1ccccc1` [Compound I-12, 3-amino-6-(3-morpholinophenyl)-N-phenylpyrazine-2-carboxamide] reads 100 to 5000 nM; that for `CC(CN(C)C)S(=O)(=O)c1ccc(-c2cnc(N)c(-c3nnc(-c4ccccc4F)o3)n2)cc1` (stereo not shown) [IA-337, 5-[4-[2-(dimethylamino)-1-methyl-ethyl]sulfonylphenyl]-3-[5-(2-fluorophenyl)-1,3,4-oxadiazol-2-yl]pyrazin-2-amine], at most 10 nM.
The result for `CC(C)NCc1ccc(-c2nnc(-c3nc(-c4ccc(S(=O)(=O)C(C)C)cc4)cnc3N)o2)s1` [IA-248, 3-[5-[5-[(isopropylamino)methyl]-2-thienyl]-1,3,4-oxadiazol-2-yl]-5-(4-isopropylsulfonylphenyl)pyrazin-2-amine] reads at most 10 nM; that for `COCCN(C)C(=O)c1ccc(-c2cnc(N)c(C(=O)Nc3ccccc3)n2)cc1` [Compound I-45, 3-amino-6-(4-((2-methoxyethyl)(methyl)carbamoyl)phenyl)-N-phenylpyrazine-2-carboxamide], 10 to 100 nM; that for `CNCc1ccc(-c2nnc(-c3nc(-c4ccc(S(=O)(=O)C(C)C)c(C#N)c4)cnc3N)o2)cc1` [IA-295, 5-[5-amino-6-[5-[4-(methylaminomethyl)phenyl]-1,3,4-oxadiazol-2-yl]pyrazin-2-yl]-2-isopropylsulfonyl-benzonitrile], at most 10 nM.
The result for `CSc1ccccc1-c1cnc(N)c(-c2nnc(-c3ccccc3)o2)n1` [IA-230, 5-(2-methylsulfanylphenyl)-3-(5-phenyl-1,3,4-oxadiazol-2-yl)pyrazin-2-amine] reads 10 to 100 nM.
